# Literature values, collected in patent EP1151755B1, “Pharmaceutical compositions comprising cyclosporin as active ingredient” (Panacea Biotec Limited, priority 2000, dated 2001).
# Test system: normal epithelial tissue and Peyer's patch tissue of guinea pigs
# Settings: in vitro; compared to the commercially available drinking solution
substance,measurement,value
Choleic acid,factor by which absorption of Cyclosporine was raised,5-6
